Experiments:
Assay in all cases: MTT tumor cell growth assay
Type in all cases: cell-based
H9 (lymphoma) = settings: H9 cells, lansoprazole 1-100 μM, 48 hours
Experimental: (§1) In one study, adherent cells were plated approximately 16-24 hours before the day of the experiment in 180 μl growth media. On the day of the experiment, the plated adherent cells were analyzed and counted and suspension cells were plated in 180 μl growth media. 10× lansoprazole compounds and vehicle was prepared. The 10× lansoprazole compounds were prepared by diluting lansoprazole to final concentrations of 100 μM, 30 μM, 10 μM, 3 μM, and 1 μM. A vehicle was prepared by preparing a solution of PBS, equivalent to the volume used for 10 μM lansoprazole wherein the 1× solution constitutes ˜0.06% PBS. 10 μl of the various 10× lansoprazole solutions and the vehicle were added to the cells. The cells were incubated at 37° C., 5% CO2 for 48 hours. The media was then aspirated. The cell suspension was then spun at 1500 RPM for 10 minutes. The media was slowly removed. 200 μl of MTT solution was added to each well with a concentration of 0.863 mg/ml MTT in the growth media. The cells were incubated at 37° C., 5% CO2 for 4 hours and the medium is then aspirated. The plate containing the cell suspension was then spun at 1500 RPM for 10 minutes. The media was slowly removed using a multichannel pipettor. 100 μl of DMSO was then added to each well. The cells were incubated at 37° C., 5% CO2 for 5 minutes and the absorbance was obtained at 560 nm using a Dynex Opsys MR plate reader. The cells used for this procedure were the following cell lines: IGROV1 (ovarian cancer); OVCAR 8 (ovarian cancer); ES-2 (ovarian cancer); CAOV3 (ovarian cancer); OVCAR5 (ovarian cancer); SUDHL4 (lymphoma); RPMI8226 (myeloma); RPMI6666 (Hodgkin's lymphoma); NC37 (lymphoma); GDM-1 (leukemia); MC/CAR (prostate cancer); DU-145 (prostate cancer), J45-01 (leukemia), MOLT3 (leukemia), HUT78, J-gamma-1 (leukemia), MCF7 […], COL0205 (colon cancer), HL60 CLONE 15 (leukemia), T47D (breast cancer), P116 (intestinal cancer), KU812 (leukemia), SW620 (colon cancer), MK92-M1 (lymphoma), MV-4-11 (leukemia), HS578T (breast cancer), HT29 (colon cancer), HCT 116 (colon cancer), CAKI-1 (kidney cancer), A549 (lung cancer), H460 (lung cancer), A3 (colon cancer), MDA-MB231 […], MALME 3M (melanoma), RXF393 (kidney cancer), RS4.11 (leukemia), PC3 (prostate cancer), OVCAR3 (ovarian cancer), MDA-MB435 (melanoma), HUT102 (lymphoma), HL60 (leukemia), CCRF-CEM (leukemia), HUT78 (lymphoma), 786-O (kidney cancer), ACHN (kidney cancer), A498 (kidney cancer), H226 (lung cancer), H522 (lung cancer), HOP92 (lung cancer), SNB 19 (brain cancer), OVCAR4 (ovarian cancer), H9 (lymphoma), UO-31 (kidney cancer), HH (lymphoma), DAUDI (leukemia), LOXIMVI (melanoma), NAMALWA (lymphoma), EKVX (lung cancer), DOHH2 (lymphoma), SNB75 (brain cancer), SKMEL28 (melanoma), SKMEL5 (melanoma), SKMEL2 (melanoma), M14 (melanoma), UACC 257 (melanoma), H332M (lung cancer), KM12 (colon cancer), HCC2998 (colon cancer), G401 (kidney cancer), RS1184 (lymphoma), MC116 (leukemia), MOLT4 (leukemia), JM1 (liver cancer), HOP-62 (lung cancer), HCT-15 (colon cancer), SF-539 (brain cancer), SF295 (brain cancer), ST486 (lymphoma), U251 (brain cancer), and UACC-62 (melanoma).

NK92MI = NK92MI cells, lansoprazole 1-100 μM, 48 hours
Experimental: as §1

HCC2998 (colon cancer) = settings: HCC2998 cells, lansoprazole 1-100 μM, 48 hours
Experimental: as §1

A549 (lung cancer) = settings: A549 cells, lansoprazole 1-100 μM, 48 hours
Experimental: as §1

ST486 (lymphoma) = settings: ST486 cells, lansoprazole 1-100 μM, 48 hours
Experimental: as §1

HT29 (colon cancer) = settings: HT29 cells, lansoprazole 1-100 μM, 48 hours
Experimental: as §1

PC3 (prostate cancer) = settings: PC3 cells, lansoprazole 1-100 μM, 48 hours
Experimental: as §1

HUT78 (lymphoma) = settings: HUT78 cells, lansoprazole 1-100 μM, 48 hours
Experimental: as §1

UACC-62 (melanoma) = settings: UACC-62 cells, lansoprazole 1-100 μM, 48 hours
Experimental: as §1

SKMEL5 (melanoma) = settings: SKMEL5 cells, lansoprazole 1-100 μM, 48 hours
Experimental: as §1

M14 (melanoma) = settings: M14 cells, lansoprazole 1-100 μM, 48 hours
Experimental: as §1

ES-2 (ovarian cancer) = settings: ES-2 cells, lansoprazole 1-100 μM, 48 hours
Experimental: as §1

J-gamma-1 (leukemia) = settings: J-gamma-1 cells, lansoprazole 1-100 μM, 48 hours
Experimental: as §1

HL60 clone 15 (leukemia) = settings: HL60 clone 15 cells, lansoprazole 1-100 μM, 48 hours
Experimental: as §1

SKMEL28 (melanoma) = settings: SKMEL28 cells, lansoprazole 1-100 μM, 48 hours
Experimental: as §1

CCRF-CEM (leukemia) = settings: CCRF-CEM cells, lansoprazole 1-100 μM, 48 hours
Experimental: as §1

HOP-62 (lung cancer) = settings: HOP-62 cells, lansoprazole 1-100 μM, 48 hours
Experimental: as §1

H460 (lung cancer) = settings: H460 cells, lansoprazole 1-100 μM, 48 hours
Experimental: as §1

Measured: tumor cell growth reduction

Cc1c(OCC(F)(F)F)ccnc1C[S+]([O-])c1nc2ccccc2[nH]1 (stereo not drawn) [lansoprazole]
significant tumor cell growth reduction: all assays above

Reference: patent publication US20100184807A1, “Methods to inhibit tumor cell growth by using proton pump inhibitors” (Bio-Quant, Inc., priority 2008, published 2010)
